Patent US20070275382A1, “Biomarkers for the Efficacy of Somatostatin Analogue Treatment” (priority 2003, published 2007)
Values joined by “and” are separate entries in the source; they are usually repeats but may differ in a detail not shown here. Equal entries are not always repeated. *1 amine or outer side, *2 acyl side, *3 side chain or, on linkers, in order; H or OH if unused. Where a SMILES comes first, the peptide text is derived from it. Side-chain parts run from the residue outwards. [ ]: non-standard residue; d: D form. The star is where a group is joined. Ethylenediamine = C(CN[*:2])N[*:1]; Hyp = O=C(O)[CH]1C[CH](O)CN1; Phg = N[CH](C(=O)O)c1ccccc1; CO = O=C([*:1])[*:2]; Bn = c1ccc(C*)cc1

Tested on: Pituitary gland
Test: Microarray gene expression profiling (HG-U95A), pituitary
Format: in vivo, cynomolgus monkeys
Procedure: Origin of tissue and processing. Male and female cynomolgus monkeys received subcutaneously pasireotide (100 μg/animal/day) or the vehicle for 14 days. On day 15, all animals were sacrificed and tissues for RNA extraction were immediately snap-frozen and kept at −80° C. until processing.
RNA expression profiling was conducted by means of the HG-U95A gene expression probe array (Affymetrix; Santa Clara, Calif. USA), containing more than 12,600 probe sets interrogating primarily full-length human genes and also some control probe sets. The experiment was conducted according to the recommendations of the manufacturer. Briefly, total RNA was obtained by acid guanidinium thiocyanate-phenol-chloroform extraction (Trizol®, Invitrogen Life Technologies, San Diego, Calif. USA) from each frozen tissue section. The total RNA was then purified on an affinity resin (Rneasy®, Qiagen) and quantified. Double stranded cDNA was synthesized with a starting amount of approximately 5 μg full-length total RNA using the Superscript® Choice System (Invitrogen Life Technologies, Carlsbad, Calif. USA) in the presence of a T7-(dT)24 DNA oligonucleotide primer. Following synthesis, the cDNA was purified by phenol/chloroform/isoamyl alcohol extraction and ethanol precipitation. The purified cDNA was then transcribed in vitro using the BioArray® High Yield RNA Transcript Labeling Kit (ENZO, Farmingdale, N.Y. USA) in the presence of biotinylated ribonucleotides form biotin labelled cRNA. The labelled cRNA was then purified on an affinity resin (Rneasy®, Qiagen), quantified and fragmented. An amount of approximately 10 μg labelled cRNA was hybridized for 16 hours at 45° C. to an expression probe array. The array was then washed and stained twice with streptavidin-phycoerythrin (Molecular Probes,) using the GeneChip® Fluidics Workstation 400 (Affymetrix, Santa Clara, Calif. USA). The array was then scanned twice using a confocal laser scanner (GeneArray® Scanner, Agilent, Palo Alto, Calif. USA) resulting in one scanned image. This resulting “.dat-file” was processed using the MAS4 program (Affymetrix) into a “.cel-file”. The “.cel file” was captured and loaded into the Affymetrix GeneChip® Laboratory Information Management System (LIMS). The LIMS database is connected to a UNIX Sun Solaris server through a network filing system that allows for the average intensities for all probes cells (CEL file) to be downloaded into an Oracle database (NPGN). Raw data was converted to expression levels using a “target intensity” of 150. The data were evaluated for quality control and loaded in the GeneSpring® software 4.2.4 (Silicon Genetics, Calif. USA) for analysis.
On the human Affymetrix HGU95Av2 chip, probe sets for individual genes contain 20 oligonucleotide pairs, each composed of a “perfect match” 25-mer and a “mismatch” 25-mer differing from the “perfect” match oligonucleotide at a single base. After probe labelling, hybridization, and laser scanning, the expression level was estimated by averaging the differences in signal intensity measured by oligonucleotide pairs of a given probe (AvgDiff value). The fold changes and directions were calculated for selected genes, from the differences of the AvgDiff values between controls and treated.
To identify genes that were impacted by pasireotide, the dataset was initially filtered to exclude in a first wave of analysis, genes whose values were systematically in the lower expression ranges where the experimental noise is high (at least 80 in a number of experiments corresponding to the smallest number of replicas of any experimental point). In a second round of selection a threshold p-value of 0.05 (based on a t-test) identified differences between treated and control based on a two component error model (Global Error Model) and, whenever possible, with a stepdown correction for multi-hypothesis testing (Benjamini and Hochberg false discovery rate). […]

[1] = ↑ vs control, 100 μg/animal/day s.c., 14 days

SMILES: NCCCCC1NC(=O)C(Cc2c[nH]c3ccccc23)NC(=O)C(c2ccccc2)NC(=O)C2CC(OC(=O)NCCN)CN2C(=O)C(Cc2ccccc2)NC(=O)C(Cc2ccc(OCc3ccccc3)cc2)NC1=O (stereo not drawn) [Pasireotide, cyclo[4-(NH2—C2H4—NH—CO—O)Pro-Phg-DTrp-Lys-Tyr(4-Bzl)-Phe]] (cyclo(F[Hyp]([CO-Ethylenediamine])[Phg]WKY(Bn)); configuration not given here)
- ATPase, H+/K+ exchanging, α polypeptide expression level, AvgDiff (range) (0.1 mg/animal/14 day): 20
- ATPase, Na+/K+ transporting, α 2 (+) polypeptide expression level, AvgDiff (range) (0.1 mg/animal/14 day): 184 (69 to 325)
- ATPase, Na+/K+ transporting, β 3 polypeptide expression level, AvgDiff (range) (0.1 mg/animal/14 day): 610 (335 to 949)
- BCL2-antagonist of cell death expression level, AvgDiff (range) (0.1 mg/animal/14 day): 69 (42 to 89)
- BCL2-associated athanogene expression level, AvgDiff (range) (0.1 mg/animal/14 day): 318 (235 to 409)
- Bax gamma expression level, AvgDiff (range) (0.1 mg/animal/14 day): 326 (221 to 448)
- Cdk inhibitor 2C (p18, inhibits CDK4) expression level, AvgDiff (range) (0.1 mg/animal/14 day): 184 (140 to 229)
- Cdk inhibitor 2D (p19, inhibits CDK4) expression level, AvgDiff (range) (0.1 mg/animal/14 day): 99 (83 to 118)
- Cell division cycle 25B expression level, AvgDiff (range) (0.1 mg/animal/14 day): 162 (134 to 187)
- Core-binding factor, runt domain, α subunit 2; translocated to, 1; cyclin D-related expression level, AvgDiff (range) (0.1 mg/animal/14 day): 491 (251 to 677)
- Cyclin D3 expression level, AvgDiff (range) (0.1 mg/animal/14 day): 338 (202 to 446)
- Cyclin F expression level, AvgDiff (range) (0.1 mg/animal/14 day): 74 (48 to 132)
- Dual specificity phosphatase 8 expression level, AvgDiff (range) (0.1 mg/animal/14 day): 170 (67 to 238)
- Forkhead box O3A expression level, AvgDiff (range) (0.1 mg/animal/14 day): 257 (186 to 324)
- GLUR 2, precursor expression level, AvgDiff (range) (0.1 mg/animal/14 day): 59 (20 to 177)
- GR expression level, AvgDiff (range) (0.1 mg/animal/14 day): 109 (51 to 215)
- IGF-2 expression level, AvgDiff (range) (0.1 mg/animal/14 day): 70 (20 to 150)
- IGFBP, acid labile subunit expression level, AvgDiff (range) (0.1 mg/animal/14 day): 83 (20 to 110)
- IP-4-phosphatase, type 1, isoform b expression level, AvgDiff (range) (0.1 mg/animal/14 day): 177 (107 to 232)
- K+ channel, subfamily K, member 3 (TASK) expression level, AvgDiff (range) (0.1 mg/animal/14 day): 26 (20 to 43)
- K+ voltage-gated channel, Shab-related subfamily, member 1 expression level, AvgDiff (range) (0.1 mg/animal/14 day): 22 (20 to 31)
- MAPKKK5 expression level, AvgDiff (range) (0.1 mg/animal/14 day): 278 (221 to 351)
- Neuroblastoma-amplified protein expression level, AvgDiff (range) (0.1 mg/animal/14 day): 237 (201 to 258)
- PI transfer protein, β expression level, AvgDiff (range) (0.1 mg/animal/14 day): 42 (34 to 50)
- PI-3-kinase, catalytic, α polypeptide expression level, AvgDiff (range) (0.1 mg/animal/14 day): 21 (20 to 24)
- PI-3-kinase, catalytic, δ polypeptide expression level, AvgDiff (range) (0.1 mg/animal/14 day): 34 (20 to 67)
- PKC inhibitor expression level, AvgDiff (range) (0.1 mg/animal/14 day): 3,333 (2,339 to 3,878) and 3,332 (2,339 to 3,878)
- PLC, γ 1 (formerly subtype 148) expression level, AvgDiff (range) (0.1 mg/animal/14 day): 40 (20 to 63)
- PP 1, regulatory (inhibitor) subunit 5 expression level, AvgDiff (range) (0.1 mg/animal/14 day): 75 (60 to 90)
- PTP, receptor type, T expression level, AvgDiff (range) (0.1 mg/animal/14 day): 101 (48 to 129)
- Phosphatase and tensin homolog (mutated in multiple advanced cancers 1) expression level, AvgDiff (range) (0.1 mg/animal/14 day): 36 (20 to 63)
- Programmed cell death 6 expression level, AvgDiff (range) (0.1 mg/animal/14 day): 635 (513 to 747)
- Putative Ca++ transporting ATPase expression level, AvgDiff (range) (0.1 mg/animal/14 day): 101 (84 to 112)
- RAB 5C, member RAS oncogene family expression level, AvgDiff (range) (0.1 mg/animal/14 day): 162 (109 to 212)
- Rab geranylgeranyltransferase, α subunit expression level, AvgDiff (range) (0.1 mg/animal/14 day): 104 (70 to 172)
- Rab geranylgeranyltransferase, βsubunit expression level, AvgDiff (range) (0.1 mg/animal/14 day): 284 (246 to 374)
- S-phase response (cyclin-related) expression level, AvgDiff (range) (0.1 mg/animal/14 day): 129 (111 to 148)
- SHB adaptor protein (a Src homology 2 protein) expression level, AvgDiff (range) (0.1 mg/animal/14 day): 38 (20 to 55)
- SSTR3 expression level, AvgDiff (range) (0.1 mg/animal/14 day): 57 (20 to 90)
- ANP (atrial natriuretic peptide precursor B) transcript fold change [1]: ↑ x2
- ATP(GTP)-binding protein transcript fold change [1]: protein ↑ x1.5
- ATPase, Ca++ transporting cardiac muscle, slow twitch 2 transcript fold change [1]: ↑ x1.5
- ATPase, Na+/K+ transporting, α 2(+) polypeptide transcript fold change [1]: polypeptide ↑ x2.5
- ATPase, Na+/K+ transporting, β 3 polypeptide transcript fold change [1]: polypeptide ↑ x2.5
- Adrenomedullin transcript fold change [1]: Adrenomedullin ↑ x2.5
- BCL2-antagonist of cell death transcript fold change [1]: cell death ↑ x2
- BCL2-associated athanogene transcript fold change [1]: athanogene ↑ x2
- BCL2/adenovirus E1B 19 kD-interacting protein 3 transcript fold change [1]: 3 ↑ x1.5
- Bax γ transcript fold change [1]: Bax γ ↑ x1.5
- Brain cannabinoid receptor 1 transcript fold change [1]: receptor 1 ↑ x2
- Butyrate response factor 2 (EGF-response factor 2) transcript fold change [1]: factor 2) ↑ x3
- CC chemokines STCP-1 transcript fold change [1]: STCP-1 ↑ x1.5
- Calcium/calmodulin-dependent protein kinase I transcript fold change [1]: kinase I ↑ x2.5
- Cdki2C (p18, inhibits CDK4) transcript fold change [1]: CDK4) ↑ x2
- Cdki2D (p19, inhibits CDK4) transcript fold change [1]: CDK4) ↑ x1.5
- Cell division cycle 25B transcript fold change [1]: ↑ x5
- Core-binding factor, runt domain, α subunit 2; translocated to, 1; cyclin D-related transcript fold change [1]: cyclin D-related ↑ x3
- Cyclin D3 transcript fold change [1]: Cyclin D3 ↑ x2.5
- Forkhead box H1 transcript fold change [1]: Forkhead box H1↑ x2
- G protein-coupled receptor, family C, group 5, member B transcript fold change [1]: group 5, member B ↑ x2
- G-protein coupled receptor 9 transcript fold change [1]: receptor 9 ↑ x2.5
- GABA-B R 1, isoform a precursor transcript fold change [1]: ↑ x1.5
